According to patent US8486901B2 (priority 2009, dated 2013):
Where “and” joins values, the source holds several entries; their conditions need not be identical. Equal entries are not always repeated.

Tested on: Kunming mice
Settings: mouse, in vivo

Question: Which “Effect on pain (result in words)” value does the source give for `N=C1NC(O)C2C3OC4(O)OC(C(O)C2(N1)[C@@H]4O)C3(O)COC1OC(CO)C(O)C(O)C1O` (stereo partly drawn) [Formula 11-Gal-TTX, 11-galactopyranosyl-TTX] here?
Answer: inhibitory effect on pain

Question: And the “Inhibition rate (%)” value?
Answer: 60.6% and 30.3% and 51.7%

Question: What about the Number of writhes of the same compound?
Answer: 12.50 ± 4.7 and 22.10 ± 6.4 and 15.30 ± 6.4
